Laboratory results as given in PubChem BioAssay (NCI).
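The compound was tested at five concentrations on cells cultured in 96-well plates, with a 48-hour exposure period. The concentration for full growth arrest is given as TGI.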

Tests used:
Experiment in all cases: NCI anticancer screen, dose series, 48 h
[1] = test system: NCI-H460 lung
[2] = test system: OVCAR-8 ovarian
[3] = test system: MOLT-4 leukemia
[4] = test system: MALME-3M melanoma
[5] = test system: TK-10 renal
[6] = test system: NCI-H522 lung
[7] = test system: SN12C renal
[8] = test system: NCI/ADR-RES ovarian
[9] = test system: MDA-MB-231 breast
[10] = test system: HCT-116 colon

SMILES	TGI [1] [µM]	TGI [2] [µM]	TGI [3] [µM]	TGI [4] [µM]	TGI [5] [µM]	TGI [6] [µM]	TGI [7] [µM]	TGI [8] [µM]	TGI [9] [µM]	TGI [10] [µM]
CC(C)C[S+]1C2=C([O-])CC(C)(C)CC2=Nc2ccccc21 (stereo not given)	> 100	> 100	> 100	> 100	> 100	> 100	> 100	> 100	> 100	> 100
CN(C)c1ccc(/C=C/C(=O)c2cc(C(C)(C)C)c(O)c(C(C)(C)C)c2)cc1	2.39	> 100	> 100	> 100	> 43.1	6	> 38.7	6.64	8.69	24.4
CON(C)c1nc(N)c(C#N)c(C#N)c1C#N	> 10	> 10	> 10	> 10	> 10	> 10	> 10	> 10	> 10	> 10
Cc1ccc(S(=O)(=O)NC(=O)Nc2c(S(N)(=O)=O)cc(S(N)(=O)=O)c(Cl)c2Cl)cc1	> 100	> 100	> 100	> 100	> 100	> 100	> 100	> 100	> 100	> 100
CC(=O)Nc1ccc(NC(=O)CC(=O)Nc2ccc(NC(C)=O)cc2)cc1	> 100	> 100	> 100	> 100	> 100	> 100	> 100	> 100	> 100	> 100
c1ccc(CN2CCC(=NN3CCCCC3)CC2)cc1	> 100	> 100	> 100	> 100	> 100	> 100	> 100	> 100	> 100	> 100
CC(NC(=O)Cc1ccc(OP(=O)(OCc2ccc([N+](=O)[O-])o2)N(C)CCCCCl)cc1)c1ccc(OCC2CCCCC2)c(C(N)=O)c1 (stereo not given)	13.1	16	4.38	4.42	15.6	5.18	4.26	94.3	4.37	4.52
CN1C(=O)c2ccccc2C(O)(c2ccccc2)C1(O)c1ccccc1 (stereo not given)	> 100	> 100	> 100	> 100	> 100	> 100	> 100	> 100	> 100	> 100
O=Cc1c2c(cc3c1CC1(C3)Cc3cc4c(c(C=O)c3C1)CCCC4)CCCC2	> 100	> 31.6	23.2	> 31.6	> 31.6	27.3	> 31.6	> 31.6	> 31.6	> 31.6
CC(=O)N1C(C(=O)NN2CCOCC2)CSC1c1ccccc1 (stereo not given)	> 100	> 100	> 100	> 100	> 100	> 100	> 100	> 100	> 100	> 100
CCCNC1=C2C[C@@H](C)C[C@@H](OC)[C@@H](OC(=O)CCCN)[C@H](C)/C=C(\C)[C@@H](OC(N)=O)[C@H](OC)/C=C\C=C(/C)C(=O)NC(=CC1=O)C2=O	34.1	43.7	19.2	28.4	36.1	19.1	> 48.8	86.2	36.7	28.3
COc1ccccc1N1CCN(CCCCNC(=O)c2ccc([N+](=O)[O-])o2)CC1	12.5	45.6	> 62.5	7.94	18.3	7.26	17.4	> 100	77.1	24.6
c1ccc(-c2csc3c2-n2cccc2C3N2CCCC2)cc1 (stereo not given)	> 100	> 100	> 100	> 100	99.7	> 100	> 100	> 100	> 100	> 100
CC(=N/NC(=S)N1CCCCCC1)/C(C)=N\NC(=S)N1CCCCCC1	31.4	> 100	> 100	11.1	8.87	8.97	3.99	16.8	> 22.8	> 20.8
O=c1oc2ccc([N+](=O)[O-])cc2nc1/C=C(\O)c1ccccc1	> 100	> 100	> 100	> 100	93.4	> 100	> 100	> 100	> 100	> 100
CCO/C(O)=C(/C(=N)N1CCOCC1)C(=O)Nc1cccc(C(F)(F)F)c1	> 100	> 100	> 100	> 100	> 100	> 100	> 100	> 100	> 100	> 100
Cc1sc2c(c1C)C(=O)c1cccn1-2	> 100	> 100	> 100	> 100	> 100	> 100	> 100	> 100	> 100	> 100
COc1ccc2[nH]c3cc4c(=O)c5cc(OC)ccc5[nH]c4cc3c(=O)c2c1	> 100	> 100	> 100	> 100	> 100	> 100	> 100	> 100	> 100	> 100
